Assay results published in patent US20230027066A1 (Urovant Sciences GmbH, priority 2019, published 2023).

How the values were obtained:
[1] = QTc study comparison mirabegron and vibegron, BP and HR in healthy subjects; assay type: in vivo, human; conditions: for HR change at Cmax, placebo adjusted / SBP change 24-hour average, placebo adjusted / SBP change at Cmax, placebo adjusted: healthy subjects
[2] = tested on: men and women with overactive bladder; experiment: Phase 3 study (75 mg), patient-reported outcomes (OAB-q LF, PGI); assay type: in vivo, human; parameters: OAB-q sleep score, improvement greater than placebo / HRQL Total Score, improvement greater than placebo / OAB-q HRQL Total Score, Active - Placebo LS Means Difference: scale not given here
Source text: Patients completed paper questionnaires at the site at the start of each required study visit to assess patient-perceived symptom relief, symptom bother, and health-related quality of life at the study visits. […] These included the following questionnaires:
1. Global Impression Items include Patient Global Impression of Severity (PGI-Severity), Patient Global Impression of Control (PGI-Control), Patient Global Impression of Frequency (PGI-Frequency), Patient Global Impression of Leakage (PGI-Leakage), and Patient Global Impression of Change (PGI-Change).
2. Overactive Bladder Questionnaire (OAB-q long form [OAB-q LF], 1-week recall) is a 33-item patient-administered, disease-specific questionnaire that includes a Health-Related QoL (HRQL) scale (25 items) and a Symptom Bother Scale (8 items). The HRQL is a multidomain concept that represents the patient's general perception of the effect of illness and treatment on physical, psychological, and social aspects of life. […] In the present study, the HRQL scale is divided into 4 subscales: Coping, Concern/Worry, Sleep, and Social Interaction. The Coping subscale (also referred to as the coping domain score) was a secondary endpoint, with items scored from 1 (none of the time) to 6 (all the time), with higher scores indicating better QoL. The HRQL total score is calculated by summating the individual HRQL subscale scores. The Symptom Bother Scale items are scored from 1 (not at all) to 6 (a very great deal), with higher Symptom Bother scores indicating greater symptom severity. The instrument was developed and validated in both continent and incontinent OAB patients, including both men and women.
With the exception of the symptom bother score, a responder was defined as having a change from baseline ≥10. For symptom bother score, a responder was defined as having a change from baseline […]. A higher proportion of patients represented a favorable response.

[3] = 50% Total Incontinence Responders, Week 12
[4] = Week 12, responder = change from baseline ≥10
[5] = vibegron 75 mg/day, 12-week treatment

## O=C(Nc1ccc(C[C@@H]2CC[C@H]([C@H](O)c3ccccc3)N2)cc1)[C@@H]1CCc2nccc(=O)n21 [Vibegron, (6S)-N-[4-[[(2S,5R)−5-[(R)-hydroxy(phenyl)methyl]pyrrolidin−2-yl]methyl]phenyl]−4-oxo−7,8-dihydro−6H-pyrrolo[1,2-a]pyrimidine−6-carboxamide]
[1]; 75 mg estimate from QT study
  SBP change 24-hour average, 75 mg estimate, placebo adjusted: 24-hour average: 0.1 mmHg
  SBP change at Cmax, 75 mg estimate, placebo adjusted: At Cmax: 0.4 mmHg
[1]; 200 mg single-dose
  HR change at Cmax, placebo adjusted: 4.1 BPM
  SBP change 24-hour average, placebo adjusted: +0.7 mmHg
  SBP change at Cmax, placebo adjusted: +2.2 mmHg
[1]; 400 mg single-dose
  HR change at Cmax, placebo adjusted: 11.2 BPM
  SBP change 24-hour average, placebo adjusted: 1.3 mmHg
  SBP change at Cmax, placebo adjusted: +3.97 mmHg
[2]; [3]
  OAB-q Coping Subscore, Change from baseline at week 12, LS Means (SE): 20.3 (1.35)
  OAB-q Coping Subscore, Mean: 83.08 (18.924)
  OAB-q Symptom Bother Subscore, Change from baseline at week 12, LS Means: −25.5
  OAB-q Symptom Bother Subscore, Mean: 21.18
[2]; 75% UUI Responders, Week 4
  Change from Baseline in PGI-Control, LS Mean: −0.8 (0.06)
  PGI-Control, Mean (SD): 2.42 (0.887)
[2]; 75% UUI Responders, Week 8
  Change from Baseline in PGI-Control, LS Mean: −1.0 (0.06)
  PGI-Control, Mean (SD): 2.25 (0.863)
[2]; 75% UUI Responders, Week 12
  Change from Baseline in PGI-Control, LS Mean: −1.2 (0.06)
  OAB-q Coping Subscore, Change from baseline at week 12, LS Means (SE): 19.7 (1.48)
  OAB-q Coping Subscore, Mean (SD): 83.99 (19.232)
  OAB-q Symptom Bother Subscore, Change from Baseline at Week 12, LS Means (SE): −25.8 (1.38)
  OAB-q Symptom Bother Subscore, Mean (SD): 20.13 (15.862)
  PGI-Control, Mean (SD): 2.02 (0.784)
[2]; Week 12
  OAB-q Concern Subscore, Week 12 Mean (SD): 80.58 (21.867)
  OAB-q Concern responders, Difference from Placebo: 5.9
  OAB-q Concern, Active - Placebo LS Means Difference: 5.0
  OAB-q Concern, change from baseline LS Means (SE): 15.3 (1.24)
  OAB-q Coping Score, Active - Placebo LS Means Difference: 3.6
  OAB-q Coping Score, change from baseline LS Means (SE): 16.5 (1.31)
  OAB-q Coping Sub score, Week 12 Mean (SD): 77.26 (23.242)
  OAB-q Coping responders, Difference from Placebo: 7.5
  OAB-q HRQL Total Score, Active - Placebo LS Means Difference: 3.8
  OAB-q HRQL Total Score, change from baseline LS Means (SE): 14.6 (1.12)
  OAB-q Sleep Subscore, Week 12 Mean (SD): 75.59 (23.883)
  OAB-q Sleep responders, Difference from Placebo: 2.1
  OAB-q Sleep, Active - Placebo LS Means Difference: 4.5
  OAB-q Sleep, change from baseline LS Means (SE): 14.9 (1.34)
  OAB-q Social Interaction Subscore, Week 12 Mean (SD): 88.57 (18.011)
  OAB-q Social Interaction responders, Difference from Placebo: 5.4
  OAB-q Social Interaction, Active - Placebo LS Means Difference: 1.5
  OAB-q Social Interaction, change from baseline LS Means (SE): 10.2 (0.97)
  OAB-q Symptom Bother Subscore, Week 12 Mean (SD): 27.78 (19.816)
  OAB-q Symptom Bother responders, Difference from Placebo: 11.8
  OAB-q Symptom Bother, Active - Placebo LS Means Difference: −6.9
  OAB-q Symptom Bother, change from baseline LS Means (SE): −19.6 (1.24)
  OAB-q Total HRQL Score, Week 12 Mean (SD): 80.12 (20.175)
  OAB-q Total HRQL responders, Difference from Placebo: 5.5
[2]; Week 12, responder = change from baseline ≤−10
  OAB-q Symptom Bother responders, %: (70.1) %
[2]; [4]
  OAB-q Concern responders, %: (55.7) %
  OAB-q Coping responders, %: (61.9) %
  OAB-q Sleep responders, %: (53.9) %
  OAB-q Total HRQL responders, %: (54.1) %
[2]; [5]
  HRQL Total Score, improvement greater than placebo: 3.8
  OAB-q coping domain score, improvement greater than placebo: 3.6
  OAB-q sleep score, improvement greater than placebo: 4.5
  OAB-q symptom bother score, decrease more than placebo: 6.9
